This is an account of results in patent publication US7732468B2, “3-aryl-6-aryl-[ 1,2,4]triazolo[3,4-b][1,3,4]thiadiazoles and related compounds as activators of caspases and inducers of apoptosis and the use thereof” (Cytovia, Inc., priority 2006, dated 2010).

Common to all, as to assay type: cell-based
In test [1] the test system is Human breast cancer cell lines T-47D. As to the kind of experiment: Caspase cascade activation (Ac-DEVD-R110 fluorogenic substrate) in T-47D cells. Particulars: T47D cells, 48 h incubation, read-out: caspase potency EC50 T47D. The protocol:
(§1) Human breast cancer cell lines T-47D, human hepatocellular carcinoma cell line SNU398, human colon carcinoma cell line HCT116, human cancer cell line H11299, human Burkitt's lymphoma cell line Namalwa, human lymphoma cell line Raji, and human B cell lymphoblastoid cell line Ramos were grown according to media component mixtures designated by American Type Culture Collection+10% FCS (Invitrogen Corporation), in a 5% CO2-95% humidity incubator at 37° C. T-47D and H1299 cells were maintained at a cell density between 50 and 80% confluency at a cell density of 0.1 to 0.6×10^6 cells/mL. Cells were harvested at 600×g and resuspended at 0.65×10^6 cells/mL into appropriate media+10% FCS. An aliquot of 22.5 μL of cells was added to a well of a 384-well microtiter plate containing 2.5 μL of a 10% DMSO in RPMI-1640 media solution containing 0.16 to 100 μM of 6-(3,4-dimethoxyphenyl)-3-(2-methoxyphenyl)-[1,2,4]triazolo[3,4-b][1,3,4]thiadiazole or other test compound (0.016 to 10 μM final). An aliquot of 22.5 μL of cells was added to a well of a 384-well microtiter plate containing 2.5 μL of a 10% DMSO in RPMI-1640 media solution without test compound as the control sample. The samples were mixed by agitation and then incubated at 37° C. for 48 h in a 5% CO2-95% humidity incubator. After incubation, the samples were removed from the incubator and 25 μL of a solution containing 14 μM of N-(Ac-DEVD)-N′-ethoxycarbonyl-R110 (SEQ ID No.:1) fluorogenic substrate (Cytovia, Inc.; WO99/18856), 20% sucrose (Sigma), 20 mM DTT (Sigma), 200 mM NaCl (Sigma), 40 mM Na PIPES buffer pH 7.2 (Sigma), and 500 μg/mL lysolecithin (Calbiochem) was added. The samples were mixed by agitation and incubated at room temperature. Using a fluorescent plate reader (Model SPECTRAfluor Plus, Tecan), an initial reading (T=0) was made approximately 1-2 min after addition of the substrate solution, employing excitation at 485 nm and emission at 530 nm, to determine the background fluorescence of the control sample. After the 3 h incubation, the samples were read for fluorescence as above (T=3 h).
(§2) The Relative Fluorescence Unit values (RFU) were used to calculate the sample readings as follows: RFU(T=3h)−Control RFU(T=0)=Net RFU(T=3h)
(§3) The activity of caspase cascade activation was determined by the ratio of the net RFU value for 6-(3,4-dimethoxyphenyl)-3-(2-methoxyphenyl)-[1,2,4]triazolo[3,4-b][1,3,4]thiadiazole (Example I) or other test compound to that of control samples. The EC50 (nM) was determined by a sigmoidal dose-response calculation (Prism 3.0, GraphPad Software Inc.).

For test [2], the system named is human colon carcinoma cell line HCT116. Briefly: Caspase cascade activation in HCT116 cells. The conditions noted are these: HCT-116, 48 h incubation, read-out: caspase potency EC50 HCT116. The protocol:
as §1, §2, §3

The subject of test [3] is human lymphoma cell line Raji. Briefly: Caspase cascade activation in Raji cells. The conditions noted are these: RAJ1 cells, 48 h incubation, read-out: caspase potency EC50 RAJ1. On the procedure:
as §1, §2, §3

The subject of test [4] is human B cell lymphoblastoid cell line Ramos. Briefly: Caspase cascade activation in Ramos cells. The conditions noted are these: 48 h incubation, read-out: caspase potency EC50 RAMOS. On the procedure:
as §1, §2, §3

For test [5], the system named is human hepatocellular carcinoma cell line SNU398. Briefly: Caspase cascade activation in SNU398 cells. The conditions noted are these: SNU-398, 48 h incubation, read-out: caspase potency EC50 SNU398. On the procedure: as §1, §2, §3
The test system of test [6] is human Burkitt's lymphoma cell line Namalwa. As to the kind of experiment: Caspase cascade activation in Namalwa cells. Particulars: Burkitts lymphoma cell, 48 h incubation, read-out: caspase potency EC50 Namalwa. The protocol:
as §1, §2, §3

For the compound `CCc1nn(C)c(-c2nnc3sc(-c4ccc(OC)cc4)nn23)c1Cl` [B, 3-(4-Chloro-3-ethyl-1-methyl-1H-pyrazol-5-yl)-6-(4-methoxyphenyl)-[1,2,4]triazolo[3,4-b][1,3,4]thiadiazole], the EC50 (usually the concentration that produces a half-maximal response) in test [1] is more than 10 µM; in test [2], more than 10 µM; in test [3], 5.4 µM; in test [4], 5.3 µM; in test [5], more than 10 µM; in test [6], 5.63 µM.
For `CCN(CC)c1ccc(-c2nn3c(-c4cccnc4)nnc3s2)cc1` [D, 6-(4-Diethylaminophenyl)-3-(pyridin-3-yl)-[1,2,4]triazolo[3,4-b][1,3,4]thiadiazole], the EC50 was found to be 5.07 µM in test [3], 1.1 µM in test [4] and 2.48 µM in test [6].
In the case of `COc1cc(-c2nnc3sc(-c4ccc(C)c([N+](=O)[O-])c4)nn23)cc(OC)c1OC` [Entry 1, 6-(4-Methyl-3-nitrophenyl)-3-(3,4,5-trimethoxyphenyl)-[1,2,4]triazolo[3,4-b][1,3,4]thiadiazole], the EC50 in test [1], in test [2], in test [5] and in test [6] was more than 10 µM throughout.
For `COc1cc(-c2nnc3sc(-c4ccc(C)c(N)c4)nn23)cc(OC)c1OC` [Entry 2, 6-(3-Amino-4-methylphenyl)-3-(3,4,5-trimethoxyphenyl)-[1,2,4]triazolo[3,4-b][1,3,4]thiadiazole], the EC50 in test [1] amounted to 1.62 µM; in test [2] it was 1.31 µM; in test [5], 0.645 µM; in test [6], 0.626 µM.
Turning to `COc1cc(-c2nnc3sc(-c4ccc5nc[nH]c5c4)nn23)cc(OC)c1OC` [Entry 3, 6-(1H-Benzo[d]imidazol-6-yl)-3-(3,4,5-trimethoxyphenyl)-[1,2,4]triazolo[3,4-b][1,3,4]thiadiazole], the EC50 in test [1], in test [2], in test [5] and in test [6] was more than 10 µM throughout.
Take `COc1ccccc1-c1nnc2sc(-c3ccc(C)c([N+](=O)[O-])c3)nn12` [Entry 4, 3-(2-Methoxyphenyl)-6-(4-methyl-3-nitrophenyl)-[1,2,4]triazolo[3,4-b][1,3,4]thiadiazole]: the EC50 in test [1], in test [2], in test [5] and in test [6] was more than 10 µM throughout.
For `COc1ccccc1-c1nnc2sc(-c3ccc(OC)c([N+](=O)[O-])c3)nn12` [Entry 6, 6-(4-Methoxy-3-nitrophenyl)-3-(2-methoxyphenyl)-[1,2,4]triazolo[3,4-b][1,3,4]thiadiazole], the EC50 in test [1], in test [2], in test [5] and in test [6] was more than 10 µM throughout.
`COc1cc(-c2nnc3sc(-c4ccc(N5CCOCC5)cc4)nn23)cc(OC)c1OC` [Entry 8, 6-(4-Morpholinophenyl)-3-(3,4,5-trimethoxyphenyl)-[1,2,4]triazolo[3,4-b][1,3,4]thiadiazole]: the EC50 in test [1], in test [2], in test [5] and in test [6] was more than 10 µM in each case.
With `COc1ccccc1-c1nnc2sc(-c3ccc(N4CCOCC4)cc3)nn12` [Entry 9, 3-(2-Methoxyphenyl)-6-(4-morpholinophenyl)-[1,2,4]triazolo[3,4-b][1,3,4]thiadiazole], the EC50 in test [1] worked out at 1.27 µM; in test [2], 2.64 µM; in test [5] it was 2.31 µM; in test [6], 2.38 µM.
With `COc1ccccc1-c1nnc2sc(-c3ccc([N+](=O)[O-])c(OC)c3)nn12` [Entry 10, 6-(3-Methoxy-4-nitrophenyl)-3-(2-methoxyphenyl)-[1,2,4]triazolo[3,4-b][1,3,4]thiadiazole], the EC50 in test [1], in test [2], in test [5] and in test [6] was more than 10 µM in each case.
In the case of `COc1ccccc1-c1nnc2sc(-c3cccnc3)nn12` [Entry 11, 3-(2-Methoxyphenyl)-6-(pyridin-3-yl)-[1,2,4]triazolo[3,4-b][1,3,4]thiadiazole], the EC50 in test [1], in test [2], in test [5] and in test [6] was more than 10 µM each time.
`COc1ccccc1-c1nnc2sc(-c3ccc4[nH]ncc4c3)nn12` [Entry 12, 6-(1H-indazol-5-yl)-3-(2-methoxyphenyl)-[1,2,4]triazolo[3,4-b][1,3,4]thiadiazole]: the EC50 in test [1] was found to be 1.18 µM; in test [2] it was 1.17 µM; in test [5], 0.571 µM; in test [6], 0.649 µM.
For `COc1ccccc1-c1nnc2sc(-c3ccc4cc[nH]c4c3)nn12` [Entry 13, 6-(1H-indol-6-yl)-3-(2-methoxyphenyl)-[1,2,4]triazolo[3,4-b][1,3,4]thiadiazole], the EC50 in test [1] is 0.967 µM; in test [2], 0.663 µM; in test [5], 0.146 µM; in test [6], 0.155 µM.
Consider `COc1ccc(-c2nnc3sc(-c4ccc(N(C)C)cc4)nn23)cc1OC` [Entry C1, 3-(3,4-Dimethoxyphenyl)-6-(4-dimethylaminophenyl)-[1,2,4]triazolo[3,4-b][1,3,4]thiadiazole], for which the EC50 in test [3] was more than 10 µM; in test [4], 5.18 µM; in test [6] it was 5.3 µM.
`CN(C)c1ccc(-c2nn3c(-c4ccncc4)nnc3s2)cc1` [Entry H1, 6-(4-Dimethylaminophenyl)-3-(pyridine-4-yl)-[1,2,4]triazolo[3,4-b][1,3,4]thiadiazole]: the EC50 amounted to 4.94 µM in test [3], 3.92 µM in test [4] and 2.66 µM in test [6].
For `CN(C)c1ccc(-c2nnc3sc(-c4cccc(N(C)C)c4)nn23)cc1` [Entry J1, 3-(4-Dimethylaminophenyl)-6-(3-dimethylaminophenyl)-[1,2,4]triazolo[3,4-b][1,3,4]thiadiazole] the same measures were more than 10 µM, 5.33 µM and 5.53 µM.
Turning to `COc1ccc(-c2nn3c(-c4n[nH]c5c4CCC5)nnc3s2)cc1OC` [Entry L1, 6-(3,4-Dimethoxyphenyl)-3-(1,4,5,6-tetrahydrocyclopenta[c]pyrazol-3-yl)-[1,2,4]triazolo[3,4-b][1,3,4]thiadiazole], the EC50 in test [1] worked out at 2.43 µM; in test [2], 2.76 µM; in test [3], 2.69 µM; in test [4], 1.74 µM; in test [6] it was 1.31 µM.
`CCN(CC)c1ccc(-c2nn3c(-c4cccc(C)c4)nnc3s2)cc1` [G, 6-(4-Diethylaminophenyl)-3-m-tolyl-[1,2,4]triazolo[3,4-b][1,3,4]thiadiazole]: the results for the EC50 in test [3], in test [4] and in test [6] were 2.93 µM, 2.24 µM and 2.35 µM, respectively.
Regarding `CCN(CC)c1ccc(-c2nn3c(-c4ccncc4)nnc3s2)cc1` [J, 6-(4-Diethylaminophenyl)-3-(pyridin-4-yl)-[1,2,4]triazolo[3,4-b][1,3,4]thiadiazole], the EC50 came out at 1.06 µM in test [3], 0.524 µM in test [4] and 0.598 µM in test [6].
For the compound `COc1cc(-c2nnc3sc(-c4ccccc4)nn23)cc(OC)c1OC` [W, 6-Phenyl-3-(3,4,5-trimethoxyphenyl)-[1,2,4]triazolo[3,4-b][1,3,4]thiadiazole], the EC50 was 5.04 µM in test [1]; more than 10 µM in test [2]; more than 10 µM in test [3]; more than 10 µM in test [4]; more than 10 µM in test [5]; more than 10 µM in test [6].
`COc1ccc(-c2nn3c(-c4ccccc4Cl)nnc3s2)cc1` [Z, 3-(2-Chlorophenyl)-6-(4-methoxyphenyl)-[1,2,4]triazolo[3,4-b][1,3,4]thiadiazole]: the EC50 worked out at 1.56 µM in test [3], 1.02 µM in test [4] and 0.963 µM in test [6].
